Experimental data from US11174223B2, “Compositions, methods, and systems for the synthesis and use of imaging agents” (Lantheus Medical Imaging, Inc., priority 2010, dated 2021).

Legend:
NET [1] = molecular target: T1, NET (Rattus norvegicus, UniProt Q63380); assay: Cell uptake selectivity with and without desipramine in PC-12 cells; type: cell-based
T1 construct: endogenous in cells; host or cells: PC-12
Method: (§1) The affinity (Ki) was determined in a competition binding assay by incubating ^19F-imaging agent-1, a cold analog of imaging agent-1, or NE with ^3H-desmethylimipramine in cell membrane overexpressing human NET. The uptake selectivity was assessed by measuring imaging agent-1 or ^3H-NE cell uptake with and without pretreatment of desipramine, a selective NET inhibitor, in SK—N—SH (human neuroblastoma) and PC-12 (rat pheochromocytoma) cells. In SK—NSH cells, the uptake kinetics (Km and Vmax) were evaluated by measuring NET mediated uptake of imaging agent-1 or NE at various concentrations. Imaging agent-1 cardiac image quality was evaluated by PET imaging (˜1.5 mCi, i.v.) in rabbits in the presence and absence of desipramine (1 mg/kg).

[2] = Cardiac PET imaging in rabbit models of regional and systemic cardiac sympathetic denervation (CSD); type: in vivo, rabbits
Method: Rabbit models of regional and systemic CSD were used. To develop regional CSD, a median sternotomy was performed and phenol (89% in liquid) was pained on the anterior and posterior walls of the left ventricle. To develop systemic denervation the neurotoxin, 6-hydroxydopamine (25 mg/kg on day 1, 2, 7 and 8), was administered intravenously. Two weeks following these procedures, rabbits were imaged with imaging agent-1 (˜1.5 mCi, i.v.) using a microPET camera for 30 minutes.

NET [3] = molecular target: T2, NET (Homo sapiens, UniProt P23975); assay: Effect of heart failure medications on NET mediated imaging agent-1 uptake in SK-N-SH cells; type: cell-based; parameters: endogenous in cells; host or cells: SK-N-SH; details: 1 million cells, 60 minutes
NET [4] = molecular target: T2, NET; assay: Cell uptake selectivity with and without desipramine in SK-N-SH cells; type: cell-based; parameters: endogenous in cells; host or cells: SK-N-SH
Method: as §1

[5] = Dosimetry in non-human primates to estimate human radiation dosimetry; type: in vivo, cynomolgus monkeys
Method: Dosimetry in non-human primates of imaging agent-1 was examined. Imaging agent-1, which is labeled with ^18F, is a novel norepinephrine transporter (NET) ligand and was a useful radiotracer for mapping the cardiac nerve terminal in vivo using positron emission tomography. A study was performed in four non-human primates to estimate human radiation dosimetry.
In this study two male and two female cynomolgus monkeys were imaged using a Concord Focus 220 MicroPET scanner for whole body ^18F distribution following 4 to 5 mCi (0.65 to 1.6 μg) single intravenous injection of imaging agent-1. Under isoflurane anesthesia, images of the animals from head to lower abdomen were acquired in 5 segments over four and half hours following injection. Radioactivity in identifiable organs and the remainder of the body was determined as a function of time using region-of-interest analysis. The total number of disintegrations per unit injected dose was determined by normalizing by the injected radioactivity and integrating over time the data for radioactivity versus time. Using the OLINDA/EXM software (Organ Level Internal Dose Assessment/EXponential Modeling Software, published by Vanderbilt University), the normalized number of ^18F disintegrations for each organ was combined with the energy released by each disintegration, and using the MIRD schema, estimates were made of the fraction of the total released energy that was retained in each source organ and the contribution from each source organ to the energy deposited in surrounding target organs for an adult human. Dividing the total fractional energy deposited in each organ by the corresponding organ mass yielded the radiation dose for that organ per unit (mCi or MBq) injected dose.

[6] = tested on: norepinephrine transporter (NET), uptake 1; assay: Cardiac imaging in NHPs pretreated with desipramine; type: in vivo, nonhuman primates (NHP); details: desipramine 0.5 mg/kg
Method: (§2) Imaging agent-1 was designed as a substrate for the norepinephrine transporter (NET) to image the cardiac sympathetic nervous system. […] These values were similar to that of MIBG (2.12±0.26 μM and 4.76±0.78 pmol/min/million cells). In animals, tissue biodistribution of imaging agent-1 was assessed by tissue sampling at 15- and 60-minute following administration. Heart uptake was 2.36±0.16 and 2.17±0.12% injected dose per g tissue (% ID/g) in rats and 0.25±0.03 and 0.28±0.03% ID/g in rabbits. In rabbits, desipramine (1 mg/kg) inhibited heart uptake of imaging agent-1 by 68% and ^123I-MIBG uptake by 55% at 1 hour post dose.
Desipramine, a selective uptake 1 inhibitor, was used to block cardiac uptake 1 in rats (10 mg/kg, ip), rabbits (1 mg/kg iv), and NHPs (0.5 mg/kg, iv). 6-hydroxydopamine, a neurotoxin, was injected to induce sympathetic denervation in rats (100 mg/kg ip for 7 days) and rabbits (25 mg/kg iv on day 1, 2, 7, and 8). Imaging agent-1 heart uptake in comparison with MIBG was assessed by tissue sampling at 60 minutes post imaging agent injection. Imaging was also performed with (2-tert-butyl-4-chloro-5-[4-(2-[^18F]fluoroethoxymethyl)-benzyloxy]-2H-pyridazin-3-1.

[7] = Tissue biodistribution by tissue sampling in rats; type: in vivo
Method: as §2

[8] = Regional myocardial radioactivity concentration by dynamic PET in normal subjects; type: in vivo, human
Method: A human study was performed that determined the quantification of normal pattern of regional myocardial radioactivity concentration of imaging agent-1.
Normal subjects (n=6) were injected with ˜220 MBq of imaging agent-1 intravenously, and dynamic PET images were acquired over 80 min without patient movement. Attenuation corrected images were re-oriented into standard cardiac specific axes, and the maximal regional myocardial uptake was quantified on a sector-by-sector basis using WLCQ software. […] Activity was expressed as Bq/ml.

[9] = estimated from cynomolgus monkey PET

T2 sequence (P23975 whole entry): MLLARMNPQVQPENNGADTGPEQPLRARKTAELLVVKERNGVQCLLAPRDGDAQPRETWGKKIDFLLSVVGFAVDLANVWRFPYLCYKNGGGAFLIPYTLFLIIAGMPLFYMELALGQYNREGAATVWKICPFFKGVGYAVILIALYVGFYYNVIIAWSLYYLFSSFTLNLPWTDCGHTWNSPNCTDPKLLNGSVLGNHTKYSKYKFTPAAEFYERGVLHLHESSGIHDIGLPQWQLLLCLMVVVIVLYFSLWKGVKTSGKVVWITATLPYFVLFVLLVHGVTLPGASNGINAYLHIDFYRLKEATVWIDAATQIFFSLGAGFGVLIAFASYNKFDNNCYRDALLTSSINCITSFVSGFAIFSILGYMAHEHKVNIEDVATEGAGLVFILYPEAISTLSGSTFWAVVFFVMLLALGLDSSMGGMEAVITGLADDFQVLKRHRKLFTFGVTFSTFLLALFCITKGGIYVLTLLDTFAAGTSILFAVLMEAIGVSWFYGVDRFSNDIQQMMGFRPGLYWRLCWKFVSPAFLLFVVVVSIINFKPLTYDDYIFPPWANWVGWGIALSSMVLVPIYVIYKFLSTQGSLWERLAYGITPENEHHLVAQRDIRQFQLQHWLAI
T1 sequence (Q63380 1-617): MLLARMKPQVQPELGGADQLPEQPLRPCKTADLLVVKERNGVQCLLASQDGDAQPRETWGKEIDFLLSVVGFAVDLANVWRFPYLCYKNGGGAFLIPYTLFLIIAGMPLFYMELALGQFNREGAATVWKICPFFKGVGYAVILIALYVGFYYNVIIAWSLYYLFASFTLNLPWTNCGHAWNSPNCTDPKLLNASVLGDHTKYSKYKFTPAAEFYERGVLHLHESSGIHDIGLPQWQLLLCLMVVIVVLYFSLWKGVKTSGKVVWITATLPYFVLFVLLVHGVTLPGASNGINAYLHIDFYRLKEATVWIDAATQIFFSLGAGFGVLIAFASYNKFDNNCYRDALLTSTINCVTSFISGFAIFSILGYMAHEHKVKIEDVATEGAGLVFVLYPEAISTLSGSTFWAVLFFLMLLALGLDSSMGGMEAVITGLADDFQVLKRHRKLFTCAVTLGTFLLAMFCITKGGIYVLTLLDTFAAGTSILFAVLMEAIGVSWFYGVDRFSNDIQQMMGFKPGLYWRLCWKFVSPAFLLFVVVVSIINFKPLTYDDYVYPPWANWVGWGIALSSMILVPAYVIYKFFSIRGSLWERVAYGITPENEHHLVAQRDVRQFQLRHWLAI

## N=C(N)NCc1ccc(OCCC[18F])c(Br)c1 [imaging agent-1, 1-{3-Bromo-4-[3-[^18F]fluoropropoxy]benzyl}guanidine]
NET [1]
  Inhibition of cell uptake by blockade of NET (desipramine): 66±7%
[2]; rabbits with systemic denervation (6-hydroxydopamine)
  Global reduction in heart uptake compared to control animals (image based quantification): ~80%
[2]; rabbits, phenol regional denervation
  Uptake in the treated regions after regional denervation: marked reduction
NET [3]
  Cell uptake: 26±2%
NET [4]
  Inhibition of cell uptake by blockade of NET (desipramine): 91±1%
[5]; based on average values
  Maximum administered dose that does not exceed 10 mSv effective dose: 14 mCi
  Maximum dose that may be administered to a human without exceeding 50 mSv (5 rem) to the urinary bladder: 12 mCi
[5]; [9]
  Mean effective dose as defined in ICRP 60: 0.070±0.0059 rem/mCi
  Mean whole body dose estimate: 0.044±0.00031 rem/mCi
  Predicted human radiation dose estimate, adrenals: 0.14±0.027 rem/mCi
  Predicted human radiation dose estimate, heart wall: 0.085±0.014 rem/mCi
  Predicted human radiation dose estimate, kidneys: 0.15±0.088 rem/mCi
  Predicted human radiation dose estimate, osteogenic cells: 0.084±0.0048 rem/mCi
  Predicted human radiation dose estimate, red bone marrow: 0.083±0.0099 rem/mCi
[5]; estimated from cynomolgus monkey PET, OLINDA/EXM
  Predicted human radiation dose estimate, urinary bladder wall: 0.41±0.089 rem/mCi
[6]
  Decrease of radioactivity in the heart by desipramine pretreatment (cardiac imaging): 68%
[7]; 15-minute following administration
  Heart uptake: 2.36±0.16 % ID/g
[7]; 60-minute following administration
  Heart uptake: 2.17±0.12 % ID/g
[8]; normal subjects n=6, ~220 MBq iv
  Clearance of radiotracer from blood: cleared quickly from the blood
[8]; post injection
  Time at which myocardial activity reached a plateau: ~60 min
  Time of peak of regional and global myocardial activity: ≤ 10 min
[8]; ~60 min post injection
  Myocardial uptake, Apical short axis slice: 11678±2148 Bq/ml
  Myocardial uptake, Base short axis slice: 11284±2844 Bq/ml
  Myocardial uptake, Mid short axis slice: 11898±2047 Bq/ml
  Regional myocardial uptake, Anterior sector: 11592±2474 Bq/ml
  Regional myocardial uptake, Inferior sector: 11818±1991 Bq/ml
  Regional myocardial uptake, Lateral sector: 11424±2439 Bq/ml
  Regional myocardial uptake, Septal sector: 11647±2829 Bq/ml
